Patent US9403832B2, “Pyrazolo[1,5-a]pyrimidine-based compounds, compositions comprising them, and methods of their use” (Lexicon Pharmaceuticals, Inc., priority 2012, dated 2016)

Tests used:
AAK1 [1] = target: T1, AAK1 (Homo sapiens, UniProt Q2M2I8); test: P81 filter plate assay; type: biochemical; settings: full-length human AAK1, Mu2 substrate, 33P-ATP
T1 construct: NP_055726.2
Summary of the method: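 Full-length human AAK1 (0.2 nM, 2×) was pre-incubated 10 min at RT with compounds (top concentration 96 μM in the dilution plate), then reacted 1 h at RT with full-length human Mu2 (0.2 μM, 2×), cold ATP (2 μM, 2×) and ³³P-ATP. Reactions were stopped with phosphoric acid and captured on P81 filters for scintillation counting.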

AAK1 [2] = target: T1, AAK1; test: HEK281 cell-based assay (CBA); settings: HEK293F cells transfected with full length human AAK1 and AP2M1; phospho-mu2 Western blot; 3 hours incubation
Method: HEK293F cells were cultured in media containing DMEM (Gibco, cat. #11965), 10% FBS (SAFC Biosciences, cat. #12103C), 1× GPS (glutamine, penicillin and streptomycin). On day one, cells were plated on a 10 cm dish so that they are ˜80% confluent at time of transfection. Roughly 12 million cells were in a 10 cm dish at time of transfection. On day two, each dish was transfected with 48 ug DNA and 144 ul Lipofectamine 2000 (Invitrogen, cat. #11668-019). The DNA was comprised of a mixture (per 10 cm dish) containing 3 ug AAK1/HA/pIRES (full length human, NCBI accession no. NP_055726.2), 45 μg Flag/AP2MI/pcDNA (full length human), and 1.5 ml OPTI-MEM. The Lipofectamine 2000 is made up of a mixture (per 10 cm dish) containing 144 μl Lipofectamine 2000 and 1.5 ml OPTI-MEM. Each mixture was transferred to individual 15 ml tubes and incubated at RT for 5 minutes, and then the two mixes were combined and incubated at RT for 20 minutes.
Growth media was then aspirated from each 10 cm plate and replaced with 10 ml of DMEM+10% FBS (no GPS). Finally, 3 ml DNA/Lipofectamine mix was added to each 10 cm dish and mix gently followed by incubate of plate overnight at 37° C. and 5% CO2.
On day three, compounds were diluted in 100% DMSO at 1000× final concentration, followed by 3-fold serial dilutions for a total of 5 concentrations tested. Four compounds were tested per 10 cm dish. One ul of each compound dilution was then pipetted into a deep-well, 96-well plate, followed by addition of 500 μl DMEM+0.5% FBS into each well for a 2× final concentration of each compound. Cells were resuspended in a 10 cm dish by simple pipetting (HEK293 cells come off the plate that easy at this point) and then transferred to a 50 ml conical tube and pelleted by centrifugation at 1000 rpm for 5 min. Cell pellets were then resuspended in 2.75 ml DMEM+0.5% FBS per 10 cm dish and 100 μl of cell suspension transferred into each well of 96-well TC plate. Finally, 100 μl of 2× compound diluted in DMEM+0.5% FBS was then added into wells containing cell suspension for a 1× final concentration. Plates were then incubated at 37° C. and 5% CO2 for 3 hours followed by transferring of cell suspensions from each well into 12-tube PCR strips. The PCR strips were spun in a tip rack at 1000 rpm for 5 minutes to pellet cells and media was then removed by pipetting without disturbing the cell pellet.
To prepare for Western Blot analysis, cell pellets were resuspend in 40 ul 1× LDS-PAGE sample buffer (Invitrogen, cat.# NP0008)+2× Halt phophatase and protease inhibitor cocktail (Thermo Scientific, cat. #1861284), followed by sonicating each with microtip sonicator set at 5 for 8-10 seconds. Five ul of 10× NuPage Sample Reducing Agent (with 50 mM DTT) was to each sample followed by heat denaturing at 70 C for 10 min on PCR machine. A total of 10 μl per sample was loaded into each lane of a 4-20% Tris-Glycine Criterion 26-well gel (Biorad, cat. #345-0034) for the phospho-mu2 blot and 10 μl per lane in a 4-12% Bis-Tris (+MES buffer) NuPAGE 26-well gel (Invitrogen, cat.# WG1403BX10) for the mu2 blot. For controls, 2 ng of phospho-mu2 or 20 ng mu2/Flag proteins were loaded in the last well of each gel. After SDS-PAGE, samples on each gel were transferred to PVDF membrane using an iBlot and membranes were blocked for one hour in TBST+5% milk, followed by wash 3× for 5-10 min with TBST. Criterion gels were probed with rabbit anti-phospho-mu2 (1:5000; a rabbit polyclonal antibody produced by New England Peptide and affinity purified at Lexicon) in TBST+5% BSA, whereas, NuPAGE gels were probed with mouse anti-Flag (1:500; Sigma, cat.# F1804) in TBST+5% milk, and these primary antibodies were incubated overnight at 4° C. on a rocker.

T1 sequence (Q2M2I8 1-863 isoform Q2M2I8-2): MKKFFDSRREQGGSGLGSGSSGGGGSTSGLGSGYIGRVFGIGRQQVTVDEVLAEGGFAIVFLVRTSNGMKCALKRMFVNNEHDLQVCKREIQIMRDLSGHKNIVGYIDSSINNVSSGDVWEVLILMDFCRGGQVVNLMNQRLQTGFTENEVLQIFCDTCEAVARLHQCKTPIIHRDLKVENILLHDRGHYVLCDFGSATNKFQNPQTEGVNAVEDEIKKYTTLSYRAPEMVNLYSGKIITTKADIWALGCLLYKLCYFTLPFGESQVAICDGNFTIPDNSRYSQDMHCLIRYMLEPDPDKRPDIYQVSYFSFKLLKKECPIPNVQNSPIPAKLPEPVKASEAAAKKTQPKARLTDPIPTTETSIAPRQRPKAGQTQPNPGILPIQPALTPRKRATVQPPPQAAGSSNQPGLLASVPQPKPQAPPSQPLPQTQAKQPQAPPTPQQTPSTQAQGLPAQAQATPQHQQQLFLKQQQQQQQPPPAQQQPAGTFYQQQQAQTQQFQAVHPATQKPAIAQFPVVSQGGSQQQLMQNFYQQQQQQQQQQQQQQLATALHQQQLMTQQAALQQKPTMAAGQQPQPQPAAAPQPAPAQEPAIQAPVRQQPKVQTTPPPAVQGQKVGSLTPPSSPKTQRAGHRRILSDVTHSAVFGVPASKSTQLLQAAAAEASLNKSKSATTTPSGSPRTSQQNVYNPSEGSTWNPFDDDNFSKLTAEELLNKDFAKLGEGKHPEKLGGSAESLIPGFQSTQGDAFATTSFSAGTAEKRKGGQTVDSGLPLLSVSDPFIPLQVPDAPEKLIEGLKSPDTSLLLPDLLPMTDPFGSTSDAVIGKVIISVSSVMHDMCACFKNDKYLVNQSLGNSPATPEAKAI

`COc1ncccc1-c1cnn2ccc(N3CCN(C(=O)O[C@@H]4CCOC4)CC3)nc12` [(R)-tetrahydrofuran-3-yl 4-(3-(2-methoxypyridin-3-yl)pyrazolo[1,5-a]pyrimidin-5-yl)piperazine-1-carboxylate] gave an IC50 (AAK1 [1]) of at most 10 nM and an IC50 (AAK1 [2]) of at most 10 nM.
Work on `COc1ccc(F)cc1-c1cnn2ccc(N3CCN(C(=O)O[C@@H]4CCOC4)CC3)nc12` [(R)-tetrahydrofuran-3-yl 4-(3-(5-fluoro-2-methoxyphenyl)pyrazolo[1,5-a]pyrimidin-5-yl)piperazine-1-carboxylate] yielded an IC50 (AAK1 [1]) of at most 10 nM and an IC50 (AAK1 [2]) of at most 10 nM.
`COc1ncc(F)cc1-c1cnn2ccc(N3CCN(C(=O)O[C@@H]4CCOC4)CC3)nc12` [(R)-tetrahydrofuran-3-yl 4-(3-(5-fluoro-2-methoxypyridin-3-yl)pyrazolo[1,5-a]pyrimidin-5-yl)piperazine-1-carboxylate] gave an IC50 (AAK1 [1]) of at most 10 nM and an IC50 (AAK1 [2]) of at most 10 nM.
`CN[C@H](C(=O)N1CCN(c2ccn3ncc(-c4cccnc4OC)c3n2)CC1)C(C)(C)C` [(S)-1-(4-(3-(2-methoxypyridin-3-yl)pyrazolo[1,5-a]pyrimidin-5-yl)piperazin-1-yl)-3,3-dimethyl-2-(methylamino)butan-1-one] gave an IC50 (AAK1 [1]) of at most 10 nM and an IC50 (AAK1 [2]) of at most 100 nM.
For `CN[C@@H](CC(C)C)C(=O)N1CCN(c2ccn3ncc(-c4cccnc4OC)c3n2)CC1` [(S)-1-(4-(3-(2-methoxypyridin-3-yl)pyrazolo[1,5-a]pyrimidin-5-yl)piperazin-1-yl)-4-methyl-2-(methylamino)pentan-1-one], the IC50 (AAK1 [1]) was at most 10 nM and the IC50 (AAK1 [2]) was at most 10 nM.
`COC[C@H](C)OC(=O)N1CCN(c2ccn3ncc(-c4cccnc4OC)c3n2)CC1` [(S)-1-methoxypropan-2-yl 4-(3-(2-methoxypyridin-3-yl)pyrazolo[1,5-a]pyrimidin-5-yl)piperazine-1-carboxylate] was tested, and the IC50 (AAK1 [1]) was at most 10 nM and the IC50 (AAK1 [2]) was at most 10 nM.
With `CC(C)[C@H](N)C(=O)N1CCN(c2ccn3ncc(-c4cc(F)ccc4F)c3n2)CC1` [(S)-2-amino-1-(4-(3-(2,5-difluorophenyl)pyrazolo[1,5-a]pyrimidin-5-yl)piperazin-1-yl)-3-methylbutan-1-one] the IC50 (AAK1 [1]) was at most 10 nM and the IC50 (AAK1 [2]) was at most 10 nM.
Compound `Cc1ccc(-c2cnn3ccc(N4CCN(C(=O)[C@@H](N)C(C)C)CC4)nc23)c(F)c1` [(S)-2-amino-1-(4-(3-(2-fluoro-4-methylphenyl)pyrazolo[1,5-a]pyrimidin-5-yl)piperazin-1-yl)-3-methylbutan-1-one] has an IC50 (AAK1 [1]) of at most 10 nM and an IC50 (AAK1 [2]) of at most 100 nM.
`CC(C)[C@H](N)C(=O)N1CCN(c2ccn3ncc(-c4ccccc4F)c3n2)CC1` [(S)-2-amino-1-(4-(3-(2-fluorophenyl)pyrazolo[1,5-a]pyrimidin-5-yl)piperazin-1-yl)-3-methylbutan-1-one] gave an IC50 (AAK1 [1]) of at most 10 nM and an IC50 (AAK1 [2]) of at most 10 nM.
Work on `COc1ccccc1-c1cnn2ccc(N3CCN(C(=O)[C@@H](N)C(C)(C)C)CC3)nc12` [(S)-2-amino-1-(4-(3-(2-methoxyphenyl)pyrazolo[1,5-a]pyrimidin-5-yl)piperazin-1-yl)-3,3-dimethylbutan-1-one] yielded an IC50 (AAK1 [1]) of at most 10 nM and an IC50 (AAK1 [2]) of at most 10 nM.
`COc1ccccc1-c1cnn2ccc(N3CCN(C(=O)[C@@H](N)C(C)C)CC3)nc12` [(S)-2-amino-1-(4-(3-(2-methoxyphenyl)pyrazolo[1,5-a]pyrimidin-5-yl)piperazin-1-yl)-3-methylbutan-1-one] showed an IC50 (AAK1 [1]) of at most 10 nM and an IC50 (AAK1 [2]) of at most 10 nM.
In the case of `COc1ncccc1-c1cnn2ccc(N3CCN(C(=O)[C@@H](N)C(C)(C)C)CC3)nc12` [(S)-2-amino-1-(4-(3-(2-methoxypyridin-3-yl)pyrazolo[1,5-a]pyrimidin-5-yl)piperazin-1-yl)-3,3-dimethylbutan-1-one], the IC50 (AAK1 [1]) is reported as at most 10 nM and the IC50 (AAK1 [2]) is reported as at most 10 nM.
Work on `COc1ncccc1-c1cnn2ccc(N3CCN(C(=O)[C@@H](N)C(C)C)CC3)nc12` [(S)-2-amino-1-(4-(3-(2-methoxypyridin-3-yl)pyrazolo[1,5-a]pyrimidin-5-yl)piperazin-1-yl)-3-methylbutan-1-one] yielded an IC50 (AAK1 [1]) of at most 10 nM and an IC50 (AAK1 [2]) of at most 10 nM.
